According to patent US5843889A, “Glycopeptide antibiotic derivatives” (Eli Lilly and Company, priority 1997, dated 1998):
In brackets after ≈: the same amount, converted by molar mass.

Tests used:
[1] = test system: Entercoccus faecium 180-1; test: MIC, standard broth micro-dilution assay; format: cell-based
Protocol: (§1) The MIC's were determined using a standard broth micro-dilution assay.

Entercoccus faecium 180 = test: MIC, standard broth micro-dilution assay; format: cell-based
Protocol: as §1

Escherichia coli EC14 = test: MIC, standard broth micro-dilution assay; format: cell-based
Protocol: as §1

[2] = test system: Staphylococcus aureus 446; test: MIC, standard broth micro-dilution assay; format: cell-based
Protocol: as §1

[3] = test system: Staphylococcus aureus 447; test: MIC, standard broth micro-dilution assay; format: cell-based
Protocol: as §1

[4] = test system: Staphylococcus aureus 489; test: MIC, standard broth micro-dilution assay; format: cell-based
Protocol: as §1

[5] = test system: Staphylococcus aureus 491; test: MIC, standard broth micro-dilution assay; format: cell-based
Protocol: as §1

[6] = test system: Staphylococcus aureus SA1199A; test: MIC, standard broth micro-dilution assay; format: cell-based
Protocol: as §1

[7] = test system: Staphylococcus aureus SA1199; test: MIC, standard broth micro-dilution assay; format: cell-based
Protocol: as §1

[8] = test system: Staphylococcus aureus X400; test: MIC, standard broth micro-dilution assay; format: cell-based
Protocol: as §1

[9] = test system: Staphylococcus aureus X778; test: MIC, standard broth micro-dilution assay; format: cell-based
Protocol: as §1

[10] = test system: Staphylococcus epidermidis 270; test: MIC, standard broth micro-dilution assay; format: cell-based
Protocol: as §1

[11] = test system: Staphylococcus haemolyticus 105; test: MIC, standard broth micro-dilution assay; format: cell-based
Protocol: as §1

[12] = test system: Staphylococcus haemolyticus 415; test: MIC, standard broth micro-dilution assay; format: cell-based
Protocol: as §1

[13] = test system: Streptococcus pneumoniae P1; test: MIC, standard broth micro-dilution assay; format: cell-based
Protocol: as §1

[14] = test system: Streptococcus pyogenes C203; test: MIC, standard broth micro-dilution assay; format: cell-based
Protocol: as §1

[15] = test system: Staphylococcus aureus S13E; format: cell-based
Protocol: as §1

[16] = test system: Staphylococcus aureus SA1199B; format: cell-based
Protocol: as §1

[17] = test system: Entercoccus faecalis 2041; test: MIC, standard broth micro-dilution assay; format: cell-based
Protocol: (§2) The formula I compounds have in vitro and in vivo activity against Gram-positive pathogenic bacteria. The MIC's were determined using a standard broth micro-dilution assay.

Entercoccus faecalis 276 = test: MIC, standard broth micro-dilution assay; format: cell-based
Protocol: as §2

[18] = test system: Entercoccus gallinarum 245; test: MIC, standard broth micro-dilution assay; format: cell-based
Protocol: as §2

[19] = test system: Haemophilus influenzae RD; test: MIC, standard broth micro-dilution assay; format: cell-based
Protocol: as §1

Stapylococcus aureus = test: ED50 in experimentally infected mice; format: in vivo; conditions: mice infected with Stapylococcus aureus, two doses
Streptococcus pyogenes = test: ED50 in experimentally infected mice; format: in vivo; conditions: mice infected with Streptococcus pyogenes, two doses
Streptococcus pneumoniae = test: ED50 in experimentally infected mice; format: in vivo; conditions: mice infected with Streptococcus pneumoniae, two doses
[20] = test system: vancomycin-resistant enterococci (Enterococcus faecium and Enterococcus faecalis); test: mean geometric MIC, broth micro-dilution; format: cell-based; conditions: 24-hour incubation
[21] = test system: vancomycin-susceptibie enterococci (Enterococcus faecium and Enterococcus faecalis); test: mean geometric MIC, broth micro-dilution; format: cell-based; conditions: 24-hour incubation
Pedicoccus acidilacti = test: MIC, agar dilution on brain-heart infusion agar; format: cell-based; conditions: Pedioccccus acidilacti (mean of 10)
Pediococcus pentosaceus = test: MIC, agar dilution on brain-heart infusion agar; format: cell-based; conditions: Pediococcus pentosaceus (mean of 2)
Leuconostoc lactis = test: MIC, agar dilution on brain-heart infusion agar; format: cell-based; conditions: Leuconostoc lactis (mean of 2)
[22] = test system: Leuconostoc mesenteroides; test: MIC, agar dilution on brain-heart infusion agar; format: cell-based; conditions: Leuconostoc mesenteroides (mean of 4)
Lactobacillus confusus = test: MIC, agar dilution on brain-heart infusion agar; format: cell-based

| SMILES | MIC [1] [µg/mL] | MIC (Entercoccus faecium 180) [µg/mL] | MIC (Escherichia coli EC14) [µg/mL] | MIC [2] [µg/mL] | MIC [3] [µg/mL] | MIC [4] [µg/mL] | MIC [5] [µg/mL] | MIC [6] [µg/mL] | MIC [7] [µg/mL] | MIC [8] [µg/mL] | MIC [9] [µg/mL] | MIC [10] [µg/mL] | MIC [11] [µg/mL] | MIC [12] [µg/mL] | MIC [13] [µg/mL] | MIC [14] [µg/mL] | MIC [15] [µg/mL] | MIC [17] [µg/mL] | MIC (Entercoccus faecalis 276) [µg/mL] | MIC [18] [µg/mL] | other results |
| --- | --- | --- | --- | --- | --- | --- | --- | --- | --- | --- | --- | --- | --- | --- | --- | --- | --- | --- | --- | --- | --- |
| CNC(CC(C)C)C(=O)NC1C(=O)NC(CC(N)=O)C(=O)NC2C(=O)NC3C(=O)NC(C(=O)NC(C(=O)O)c4cc(O)cc(O)c4-c4cc3ccc4O)C(OC3CC(C)(N)C(O)C(C)O3)c3ccc(c(Cl)c3)Oc3cc2cc(c3OC2OC(CO)C(O)C(O)C2OC2CC(C)(NCC(C)=Cc3ccc(C(C)(C)C)cc3)C(O)C(C)O2)Oc2ccc(cc2Cl)C1O (stereo not drawn) [Compound 42, 2,3-[2-methyl-3-[4-t-butylphenyl]]propenyl] | ≤ 0.06 | 0.25 (≈ 0.141 µM) | > 64 | 1 (≈ 0.562 µM) | 0.5 (≈ 0.281 µM) | 0.5 (≈ 0.281 µM) | 0.5 (≈ 0.281 µM) | ≤ 0.06 | 1 (≈ 0.562 µM) | 1 (≈ 0.562 µM) | 1 (≈ 0.562 µM) | 0.5 (≈ 0.281 µM) | 2 (≈ 1.12 µM) | 1 (≈ 0.562 µM) | ≤ 0.06 | ≤ 0.06 | 0.5 (≈ 0.281 µM) | 0.125 (≈ 0.0703 µM) | 8 (≈ 4.5 µM) | 1 (≈ 0.562 µM) | MIC [16]: 2 µg/mL (≈ 1.12 µM) |
| CNC(CC(C)C)C(=O)NC1C(=O)NC(CC(N)=O)C(=O)NC2C(=O)NC3C(=O)NC(C(=O)NC(C(=O)O)c4cc(O)cc(O)c4-c4cc3ccc4O)C(OC3CC(C)(N)C(O)C(C)O3)c3ccc(c(Cl)c3)Oc3cc2cc(c3OC2OC(CO)C(O)C(O)C2OC2CC(C)(NCc3cccc4c([N+](=O)[O-])cccc34)C(O)C(C)O2)Oc2ccc(cc2Cl)C1O (stereo not drawn) [Compound 25, 5-nitro-1-naphthylmethyl] |  | 0.5 (≈ 0.281 µM) |  | 0.5 (≈ 0.281 µM) | 0.25 (≈ 0.141 µM) |  | 0.125 (≈ 0.0703 µM) |  |  |  |  | 0.5 (≈ 0.281 µM) | 1 (≈ 0.563 µM) | 32 (≈ 18 µM) |  |  |  | 0.25 (≈ 0.141 µM) | 0.25 (≈ 0.141 µM) | ≤ 0.06 | MIC [19]: 32 µg/mL (≈ 18 µM); ED50 (Stapylococcus aureus): 0.16 mg/kg/2; ED50 (Streptococcus pyogenes): 0.087 mg/kg/2; ED50 (Streptococcus pneumoniae): 0.088 mg/kg/2; mean geometric MIC, Vancomycin Resistant Strains [20]: 4.0 µg/mL; mean geometric MIC, Vancomycin Sensitive Strains [21]: 0.22 µg/mL |
| CNC(CC(C)C)C(=O)NC1C(=O)NC(CC(N)=O)C(=O)NC2C(=O)NC3C(=O)NC(C(=O)NC(C(=O)O)c4cc(O)cc(O)c4-c4cc3ccc4O)C(OC3CC(C)(N)C(O)C(C)O3)c3ccc(c(Cl)c3)Oc3cc2cc(c3OC2OC(CO)C(O)C(O)C2OC2CC(C)(NCc3ccc(SC)cc3)C(O)C(C)O2)Oc2ccc(cc2Cl)C1O (stereo not drawn) [Compound 41, 4-thiomethylbenzyl] | ≤ 0.06 | 0.25 (≈ 0.145 µM) | > 64 | 2 (≈ 1.16 µM) | 0.25 (≈ 0.145 µM) | ≤ 0.06 | 0.5 (≈ 0.289 µM) | ≤ 0.06 | ≤ 0.06 | ≤ 0.06 | 0.125 (≈ 0.0723 µM) | 0.25 (≈ 0.145 µM) | 2 (≈ 1.16 µM) | 4 (≈ 2.31 µM) | ≤ 0.06 | ≤ 0.06 | ≤ 0.06 | ≤ 0.06 | ≤ 0.06 | ≤ 0.06 | MIC [16]: 0.25 µg/mL (≈ 0.145 µM); MIC (Pedicoccus acidilacti): 71 µg/mL (≈ 41.1 µM); MIC (Pediococcus pentosaceus): 91 µg/mL (≈ 52.6 µM); MIC (Leuconostoc lactis): 91 µg/mL (≈ 52.6 µM); MIC [22]: 91 µg/mL (≈ 52.6 µM); MIC (Lactobacillus confusus): 64 µg/mL (≈ 37 µM) |
| CCCCCOc1ccc(-c2ccc(CNC3(C)CC(OC4C(Oc5c6cc7cc5Oc5ccc(cc5Cl)C(OC5CC(C)(N)C(O)C(C)O5)C5NC(=O)C(NC(=O)C7NC(=O)C(CC(N)=O)NC(=O)C(NC(=O)C(CC(C)C)NC)C(O)c7ccc(c(Cl)c7)O6)c6ccc(O)c(c6)-c6c(O)cc(O)cc6C(C(=O)O)NC5=O)OC(CO)C(O)C4O)OC(C)C3O)cc2)cc1 (stereo not drawn) [Compound 40, 4-[4-pentoxyphenyl]benzyl] | 2 (≈ 1.08 µM) | 1 (≈ 0.542 µM) | > 64 | 4 (≈ 2.17 µM) | 2 (≈ 1.08 µM) | 4 (≈ 2.17 µM) | 4 (≈ 2.17 µM) | 0.5 (≈ 0.271 µM) | 4 (≈ 2.17 µM) | 4 (≈ 2.17 µM) | 4 (≈ 2.17 µM) | 1 (≈ 0.542 µM) | 2 (≈ 1.08 µM) | 2 (≈ 1.08 µM) | ≤ 0.06 | ≤ 0.06 | 4 (≈ 2.17 µM) | 1 (≈ 0.542 µM) | 2 (≈ 1.08 µM) | 11 (≈ 5.96 µM) | MIC [16]: 8 µg/mL (≈ 4.34 µM) |
